This note sets out measurements from US6677309B1, “Anti-cancer drug aldehyde conjugate drugs with enhanced cytotoxicity compounds, compositions and methods” (University Technology Corporation, priority 1997, dated 2004).

Each structure is given as a SMILES string. Read-outs that look alike come from different tables or passages of the source.

In assay [1] the test system is MCF-7 cells. Nature of the assay: In vitro cytotoxicity, colony formation by crystal violet assay, MCF-7. The method, then:
(§1) The term IC50 as used herein refers to the concentration of drug which inhibits cell growth by 50%, i.e., 50% of cells are viable at the IC50 concentration relative to a no-drug control.
(§2) Cells were incubated with drug for 3 h in RPMI (Roswell Park Memorial Institute) 1640 media containing 10% fetal bovine serum and 1% DMSO. Plates, were developed using the crystal violet assay. […] In all cases percent survival was determined by the extent of colony formation six days after drug treatment.
(§3) All tissue culture materials were obtained from Gibco Life Technologies (Grand Island, N.Y.) unless otherwise stated. MCF-7 breast cancer cells were obtained from American Type Culture Collection (Rockville, Md.). […] Both cell lines were maintained in vitro by serial culture in phenol red-free RPMI Media 1640 supplemented with 10% fetal bovine serum (Gemini Bio-Products, Calbasas, Calif.), L-glutamine (2 mM), HEPES buffer (10 mM), penicillin (100 units/mL), and streptomycin (100 μg/mL). […] Cells were maintained at 37° C. in a humidified atmosphere of 5% CO2 and 95% air.
(§4) Cells were dissociated with trypsin-EDTA, counted, and suspended in growth media to a concentration of 5×10^3 cells/mL. Cell suspensions were dispensed in 200 μL aliquots into 96-well tissue culture plates. Plates were then incubated for 24 h at 37° C. in a humidified atmosphere of 5% CO2 and 95% air. The media was replaced with 180 μL of growth media prior to addition of the cytotoxic agents.
(§5) Concentrations were then corrected by measuring the solution absorbance at 480 nm (ε=11,500/mole anthracycline). The solutions were then serially diluted in DMSO to give a series of 100× working concentration solutions. For each concentration, the 100× solution was diluted 1:10 in serum-free RPMI Media 1640. 20 μL of the resulting […] solution was immediately added to the appropriate lane. Additionally, one lane was treated with 20 μL of 10% DMSO in serum-free RPMI (no drug) and one lane replaced with 200 μL of 1.5 M Tris buffer (no cells). The cells were incubated at 37° C. for 3 h. The drug solutions were removed and 200 μL of fresh growth media was added to each well.
(§6) The extent of colony formation was determined by use of a crystal violet staining assay (Gilles, R. J. et al. (1986), “Determination of cell number in monolayer cultures,” Anal. Biochem. 159:109-113; Reile, H. et al. (1990), “Computerized determination of growth kinetic curves and doubling times from cells in microcultures,” Anal. Biochem. 187:262-267). […] The cells were then stained with 75 μL of 0.1% crystal violet in deionized water for 30 min. […] The plates were blotted dry and 200 μL of 70% ethanol in water was added to each well to solublize the dye. The plates were stored at 4° C. until solubilization was complete (about 4 h). The optical density of each well was measured on an ELISA plate reader at 588 nm. Relative colony sizes were determined by comparison of the drug treated lanes to the control lanes.
(§7) MCF-7 breast cancer cells were obtained from American Type Culture Collection (Rockville, Md.). MCF-7/ADR adriamycin resistant breast cancer cells were a gift of Dr. William W. Wells (Michigan State University). Both cell lines were maintained in vitro by serial culture in phenol red-free RPMI Media 1640 supplemented with 10% fetal bovine serum (Gemini Bio-Products, Calbasas, Calif.), L-glutamine (2 mM), HEPES buffer ([…]), penicillin (100 units/mL), and streptomycin (100 μg/mL). […] Cells were maintained at 37° C. in a humidified atmosphere of 5% CO2 and 95% air.
1640 media containing 10% fetal bovine serum. The resulting 90% media/10% DMSO solutions (v/v) were incubated at 37° C. for 6h.

The test system of assay [2] is MCF-7/ADR cells. Nature of the assay: In vitro cytotoxicity, colony formation by crystal violet assay, MCF-7/ADR. The method, then:
as §1, §2, §3, §4, §5, §6, §7
These were then diluted 10× with autoclaved Millipore water.

For assay [3], the system named is LNCaP. Nature of the assay: Prostate cancer cell cytotoxicity, crystal violet assay, LNCaP. In kind it is cell-based, human. The method, then:
(§8) Toxicity to the three prostate cancer cell lines, LNCaP, DU-145, and PC-3 were measured in two different media, RPMI-1640 and DMEM (Dulbecco's Modified Eagle Medium), both supplemented with 10% fetal bovine serum.
(§9) Cell lines were maintained in vitro in RPMI 1640 media or DMEM, each supplemented with 10% fetal bovine serum, 2 mM L-glutamine, 10 mM HEPES buffer, penicillin (100 units/mL) and streptomycin (100 μg/mL).
(§10) Cells were dissociated with trypsin/EDTA, counted, and suspended in growth media (RPMI or DMEM) to a concentration of 5.6×10^3 cells/mL. Cell suspensions were dispensed in 180 μL aliquots into 96-well tissue culture plates. […] Each 100× solution was diluted 10× in growth media (RPMI or DMEM), and a 20 μL aliquot of the resulting 10× solution was immediately (<10s) added to-the appropriate lane. Additionally, one lane was treated with 20 μL of 10% DMSO in growth media (no drug) and one lane was treated with 200 μL of 1.5 M Tris buffer (no cells). The cells were incubated with the drugs for 3 h at 37° C. The drug solutions were then removed and replaced with 200 μL of fresh media. The cells were incubated for 4 days (7 days for PC-3 cells in DMEM) at 37° C. in a humidified atmosphere of 5% CO2 and 95% air. Cell survival was determined using a crystal violet assay as described earlier (Fenick, D. J. et al (1997) J. Med. Chem. 40: 2452-2461).

Assay [4] relates to DU-145. Nature of the assay: Prostate cancer cell cytotoxicity, crystal violet assay, DU-145. It is filed as cell-based, human. As for the experimental part:
as §8, §9, §10

The test system of assay [5] is PC-3. Nature of the assay: Prostate cancer cell cytotoxicity, crystal violet assay, PC-3. It is filed as cell-based, human. As for the experimental part:
as §8, §9, §10

The test system of assay [6] is self-complementary DNA octamer (GC)4. Nature of the assay: Drug-DNA conjugate formation with (GC)4, HPLC. In kind it is biochemical. The settings on record: 5 h. The method, then:
The amount of available formaldehyde was 99 μM (3×33 μM). […] The experiment was also run at 25° C. in pH 6.0 phosphate buffer containing 4% DMSO. […] The ratio for conjugate 1 was assumed to be 24:1, based upon the value for conjugate 2. […] Under these circumstances, the conjugate 1 area was estimated based upon its 480 nm absorbance, assuming the 24:1 ratio for A260:A480.
The formation of drug-DNA conjugates at 25° C. was monitored by HPLC (Method II). […] The experiment was also run in pH 6.0 phosphate buffer containing 4% DMSO.

Setting [7] is: Homo sapiens, MCF7, read-out: IC50 Values, MCF-7.
[8] abbreviates: Homo sapiens, NCI/ADR-RES, read-out: IC50 Values, MCF-7-ADR.
Where [9] appears, read: Homo sapiens, LNCaP, DMEM with 10% fetal bovine serum, 3 h drug, 4 days growth, read-out: IC50 Values, LNCaP/DMEM (converted).
The mark [10] stands for this setting: Homo sapiens, LNCaP, RPMI-1640 with 10% fetal bovine serum, 3 h drug, 4 days growth, read-out: IC50 Values, LNCaP/RPMI-1640 (converted).
Where [11] appears, read: Homo sapiens, DU-145, DMEM with 10% fetal bovine serum, 3 h drug, 4 days growth, read-out: IC50 Values, DU-145/DMEM (converted).
The mark [12] stands for this setting: Homo sapiens, PC-3, DMEM with 10% fetal bovine serum, 3 h drug, 7 days growth, read-out: IC50 Values, PC-3/DMEM (converted).
[13] abbreviates: Homo sapiens, PC-3, RPMI-1640 with 10% fetal bovine serum, 3 h drug, 4 days growth, read-out: IC50 Values, PC-3/RPMI-1640 (converted).

For `COc1cccc2c1C(=O)c1c(O)c3c(c(O)c1C2=O)C[C@@](O)(C(C)=O)C[C@@H]3O[C@H]1C[C@H](N)[C@H](O)[C@H](C)O1` [DAUN, daunorubicin, reference compound], the IC50 in assay [1] (setting [7]) is 60 nM; in assay [2] (setting [8]), 2000 nM; in assay [3] (Homo sapiens, LNCaP, read-out: IC50 Values, LNCaP/DMEM), 8 nM; in assay [3] (Homo sapiens, LNCaP, read-out: IC50 Values, LNCaP/RPMI-1640), 20 nM; in assay [4] (Homo sapiens, DU-145, read-out: IC50 Values, DU-145/DMEM), 25 nM; in assay [4] (Homo sapiens, DU-145, read-out: IC50 Values, DU-145/RPMI-1640), 100 nM. For the same compound, the IC50 in assay [5] (Homo sapiens, PC-3, read-out: IC50 Values, PC-3/DMEM) was found to be 20 nM; in assay [5] (Homo sapiens, PC-3, read-out: IC50 Values, PC-3/RPMI-1640) it was 20 nM.

With `C=O` [formaldehyde, reference compound], the IC50 in assay [1] (Homo sapiens, MCF7, read-out: IC50 value, control experiment, MCF-7) is more than 200000 nM; in assay [2] (Homo sapiens, NCI/ADR-RES, read-out: IC50 value, control experiment, MCF-7/ADR), more than 200000 nM.

As for `COc1cccc2c1C(=O)c1c(O)c3c(c(O)c1C2=O)C[C@@](O)(C(=O)CO)C[C@@H]3O[C@H]1C[C@H](N)[C@H](O)[C@H](C)O1` [DOX, doxorubicin, reference compound], the IC50 is 10000 nM in assay [2] (setting [8]); 15 nM in assay [3] (setting [9]); 20 nM in assay [3] (setting [10]); 60 nM in assay [4] (setting [11]); 60 nM in assay [5] (setting [12]); 30 nM in assay [5] (setting [13]).

As to `COc1cccc2c1C(=O)c1c(O)c3c(c(O)c1C2=O)C[C@@](O)(C(=O)CO)C[C@@H]3O[C@H]1C[C@H](N)[C@@H](O)[C@H](C)O1` [EPI, epidoxorubicin, reference compound], the IC50 in assay [1] (setting [7]) is 200 nM; in assay [1] (Homo sapiens, MCF7, read-out: IC50 Values, MCF-7, Media/Serum), more than 10000 nM; in assay [2] (setting [8]), more than 10000 nM; in assay [3] (setting [9]) it was 20 nM; in assay [3] (setting [10]) it was 20 nM; in assay [4] (setting [11]), 40 nM. For the same compound, the values for the IC50 in assay [5] (setting [12]) and in assay [5] (setting [13]) were 60 nM and 30 nM, respectively. In addition, the “DNA reacted to form drug-DNA conjugates” value in assay [6] (33 μM (GC)4, 66 μM epidoxorubicin plus 99 μM formaldehyde, pH 6.0, 4% DMSO) is reported as 51%; in assay [6] (33 μM (GC)4, 66 μM epidoxorubicin plus 99 μM formaldehyde, pH 7.3, 4% DMSO, 25° C.), 75%; in assay [6] (166 μM (GC)4, 664 μM epidoxorubicin plus 996 μM HCHO, pH 7.3, 4% DMSO, 25° C.), 93%.

Turning to `COc1cccc2c1C(=O)c1c(O)c3c(c(O)c1C2=O)C[C@@](O)(C(=O)CO)C[C@@H]3O[C@H]1C[C@H]2[C@@H](OCN3CN2CO[C@H]2[C@H](C)O[C@@H](O[C@H]4C[C@](O)(C(=O)CO)Cc5c(O)c6c(c(O)c54)C(=O)c4c(OC)cccc4C6=O)C[C@@H]23)[C@H](C)O1` [EPIF], the IC50 in assay [1] (read-out: IC50 Values, MCF-7, Media/Serum, drug preincubated 6 h at 37° C. in 10% DMSO/90% RPMI 1640 containing 10% fetal bovine serum) is 200 nM; in assay [1] (read-out: IC50 Values, MCF-7, 3 h drug incubation in RPMI 1640, 10% fetal bovine serum, 1% DMSO, colony formation six days after treatment, fresh drug solution), 32.5 nM; in assay [2] (read-out: IC50 Values, MCF-7-ADR, EPIF/DMSO, drug stored in DMSO (not dried) for 20 h at ambient temperature before treatment), 150 nM; in assay [2] (read-out: IC50 Values, MCF-7-ADR, EPIF/H2O, drug preincubated in 90% H2O/10% DMSO at 37° C. for 20 h (equilibrium mixture with intermediates B, C, D)), 200 nM; in assay [2] (read-out: IC50 Values, MCF-7-ADR, 3 h drug incubation in RPMI 1640, 10% fetal bovine serum, 1% DMSO, colony formation six days after treatment, fresh drug solution) it was 35 nM; in assay [2] (read-out: IC50 Values, MCF-7/ADR, Media/Serum, drug preincubated 6 h at 37° C. in 10% DMSO/90% RPMI 1640 containing 10% fetal bovine serum), 150 nM. Besides, the IC50 in assay [3] (DMEM with 10% fetal bovine serum, 3 h drug, 4 days growth, read-out: IC50 Values, LNCaP/DMEM (converted)) is 1 nM; in assay [3] (RPMI-1640 with 10% fetal bovine serum, 3 h drug, 4 days growth, read-out: IC50 Values, LNCaP/RPMI-1640 (converted)), 3.5 nM; in assay [4] (DMEM with 10% fetal bovine serum, 3 h drug, 4 days growth, read-out: IC50 Values, DU-145/DMEM (converted)), 4 nM; in assay [4] (RPMI-1640 with 10% fetal bovine serum, 3 h drug, 4 days growth, read-out: IC50 Values, DU-145/RPMI-1640 (converted)), 15 nM; in assay [5] (DMEM with 10% fetal bovine serum, 3 h drug, 7 days growth, read-out: IC50 Values, PC-3/DMEM (converted)), 15 nM; in assay [5] (RPMI-1640 with 10% fetal bovine serum, 3 h drug, 4 days growth, read-out: IC50 Values, PC-3/RPMI-1640 (converted)), 3.5 nM.
